“Also recorded” adds a separate entry of the source. Ends that are not written are not given here. * marks the point of attachment. Biotin = O=C1N[C@H]2[C@H](CS[C@H]2CCCCC(=O)*)N1
How the values were obtained:
[1] = tested on: anti-CD3 stimulation of CBA spleen cells; experiment: Anti-CD3 stimulation ([3H]-TdR incorporation); format: cell-based, mouse; conditions: for inhibition of anti-CD3 stimulation: result in words
Protocol: Anti-CD3 Stimulation and Mixed Lymphocyte Culture. Spleen cells isolated from CBA mice were stimulated (2×10^5/well) with anti-CD3 monoclonal antibody (Pharmingen, San Diego) at a final concentration of 0.1 to 1 μg/ml in 96-well, round-bottom microculture plates (Nunc, Denmark). Peptides at various concentrations were added at the beginning of the culture. Cells were incubated for a period of 3 days at 37° C., 5% CO2. Twenty-four hours before harvesting 1 μCi[^3H]-TdR (Amersham, Arlington Heights, Ill.) was added to individual wells. Cells were then harvested using a Filtermate 196 Harvester (Packard, Downers Grove, Ill.) and the degree of thymidine incorporation was measured using a TopCount Microplate Scintillation Counter (Packard). For MLR, CBA spleen cells were used as responders and B6 spleen cells as stimulators. B6 spleen cells were pre- treated with mitomycin-C (Calbiochem, La Jolla, Calif.) at 0.5 mg/ml for 20 min at 36° C. Cells were then washed three times to remove excess mitomycin-C. CBA spleen cells (2×10^5/well) were cultured with an equal number of mitomycin C-treated B6 cells in serum-free Aim V medium for periods of 3 to 6 days. One microcurie of [^3H]-TdR was added to the culture 24 hour before cell harvesting and the degree of thymidine incorporation was quantified as described above.

[2] = tested on: CTL activity (CBA to B6 effector cells, EL4 target cells); experiment: Cytotoxic T cell activity (51Cr release); format: cell-based, mouse; conditions: for inhibition of CTL activity: result in words
Protocol: Cytotoxic T Cell Activity. To assay the effect of peptides on cytotoxic T cell activity, CBA to B6 effector cells were prepared following a 6-day culture of 4×10^6 CBA spleen cells with 5×10^6 mitomycin-treated B6 spleen cells in wells of a 24 well plate (Nuncion Delta, Nunc, Denmark) in RPMI-1640 with 10% FBS. Effector cells were then harvested and washed. EL4 (H-2^b), a mouse lymphoma induced in C57BL/6N was used as target cells. Cultured EL4 cells were maintained and sub-cultured once every three days […] Effector (E) and target (T) cells were then added into V-shaped tissue culture plates (Nunc, Denmark) at E:T ratios of 3:1, 10:1, 30:1, 100:1, respectively. Peptides were diluted to the working concentrations with R-10 medium and added at the beginning of the 4-hour incubation period. For the determination of maximal release, 1% Triton X-100 was added to separate wells. Plates were then centrifuged for 2 min to increase cellular contact before the 4-hour incubation period. After incubation, 75 μl supernatant from each well was collected and the amount of ^51Cr was counted using a TopCount Scintillation Counter. The degree of cell lysis was calculated using the formula below: [formula]

[3] = tested on: NK cell activity (killing of YAC-1 cells by CBA spleen cells); experiment: NK cell activity (51Cr release); format: cell-based, mouse; conditions: YAC-1 targets, freshly isolated CBA spleen cells
Protocol: NK Cell Activity. YAC-1, a mouse lymphoma which was induced by inoculation of Moloney leukemia virus into a newborn A/Sn mouse was used as the NK cell target (ATCC TIB 160). Four thousand sodium chromate labeled YAC-1 cells were cultured with different concentrations of freshly isolated CBA spleen cells (effector to target ratios: 62.5:1, 125:1, 250:1, 500:1) in V-shaped bottom plates with RPMI-1640 containing 10% FBS for 4 h at 37° C., 5% CO2. The degree of cell lysis was quantified by the release of ^51Cr into the supernatants. After incubation, plates were centrifuged and 75 μl of supernatant was collected. The degree of cell lysis was measured using a TopCount Scintillation Counter. The degree of cell lysis was calculated using the formula below: [formula]

[4] = tested on: human peripheral blood lymphocytes; experiment: Staining of PBLs with biotinylated peptide panel; format: binding; conditions: for binding to PBLs: 50 μg/ml biotinylated peptide; for binding on resting lymphocytes: majority of binding on macrophage/polymorphonuclear leukocytes population
From the text: (§1) In the next study, human peripheral blood lymphocytes were isolated and stained with the biotinylated peptide panel. […] Using human and murine cell lines, a spectrum of binding affinity was observed.

Jurkat cell line E6-1 = experiment: Binding of biotinylated peptide to cell lines; conditions: among human and murine cell lines
From the text: as §1

[5] = tested on: anti-H2b CTL effector population; experiment: Binding of biotinylated peptide to CTL effectors; parameters: species or system mouse; conditions: cells activated (IL-2 receptor expression)
[6] = tested on: B6 hearts in CBA recipients; experiment: Heterotopic heart transplantation; format: in vivo, mouse; conditions: 10 mg/kg/day, day 0 to day 10; untreated MST 7.5+/−1.1; p=0.0007
Protocol: The in vivo immunosuppressive activity of the peptides was evaluated in heterotopic heart transplantation in the model described by Ono and Lindsey, (J Thorac Cardiovasc Surg 1969, 7:225). CBA recipients of B6 hearts were treated 10 mg/kg/day of p15 from day 0 to day 10 after transplantation. Untreated recipients rejected the allografts between day 6 and 10 (MST=7.5+/−1.1 days). Treatment of recipients with p15 lead to a significant increase of graft survival (MST=14.4+/−1.5 days, p vs control=0.0007; Mann-Whitney Test).

Substance	inhibition of anti-CD3 stimulation at 5 μg/ml [1]	inhibition of anti-CD3 stimulation at 50 μg/ml [1]	inhibition of anti-CD3 stimulation [1]	inhibition of CTL activity [2]	other results
3: Bt-SGSG-RENLRTALRY (Biotin-SGSGRENLRTALRY-OH) [compound 3]	substantially less inhibition	substantially complete inhibition	inhibit the anti-CD3 stimulation in a dose dependent manner	–	–
4: Bt-SGSG-RVNLRTALRY [compound 4]	–	–	–	inhibitory activity substantially greater than contol	–
16: Bi-SGSG-LRIALRYYWD [compound 16]	substantially less inhibition	substantially complete inhibition	inhibit the anti-CD3 stimulation in a dose dependent manner	inhibitory activity substantially greater than contol	–
17: Bt-SGSG-IALRYYWDS [compound 17]	substantially less inhibition	substantially complete inhibition	inhibit the anti-CD3 stimulation in a dose dependent manner	–	–
19: Bt-SGSG-LRYYWDSEA [compound 19]	–	–	–	inhibitory activity substantially greater than contol	–
20: Bt-SGSG-RIALRAAA [compound 20]	–	–	–	inhibitory activity substantially greater than contol	–
23: Bt-SGSG-NLRIALRY [compound 23]	–	–	–	inhibitory activity substantially greater than contol	–
27: Bt-SGSG-QTDRENLRIA [compound 27]	significant levels of inhibition	–	–	inhibitory activity substantially greater than contol	–
34: Bt-SGSG-REALRIALRY [compound 34]	–	–	–	inhibitory activity substantially greater than contol	–
40: Bt-SGSG-RENLRIALRA [compound 40]	substantially less inhibition	substantially complete inhibition	inhibit the anti-CD3 stimulation in a dose dependent manner	–	–
41: Bt-SGSG-RVDLRTLRGY [compound 41]	substantially less inhibition	substantially complete inhibition	inhibit the anti-CD3 stimulation in a dose dependent manner	–	–
42: Bt-SGSG-RVSLRNLRGY [compound 42]	significant levels of inhibition	substantially complete inhibition	inhibit the anti-CD3 stimulation in a dose dependent manner	–	–
43: Bt-SGSG-RVNLRTLRRY; marked E in the table [compound 43]	significant levels of inhibition	substantially complete inhibition	inhibit the anti-CD3 stimulation in a dose dependent manner	–	–
Bt-SGSG-NLRIALRYYW; positions 77–85 terminating with tryptophan (Biotin-SGSGNLRIALRYYW-OH) [peptide 15]	substantially less inhibition	substantially complete inhibition	inhibit the anti-CD3 stimulation in a dose dependent manner	inhibited CTL activity; also recorded: highest degree of inhibition	CTL inhibition across different MHC combinations ([2]; H2k>H2b, H2d>H2b, H2k>H2d strain combinations): greater activity than B2702 monomer; also recorded: non-MHC restricted; percentage lysis in presence of peptide ([2]; lysis without peptide 42%): 7%; inhibition of NK cell killing [3]: able to inhibit the killing of YAC-1; binding to PBLs [4]: bound to the PBLs; binding on resting lymphocytes [4]: little or no binding on resting lymphocytes; degree of binding to cell line (Jurkat cell line E6-1): highest degree of binding; binding to activated CTL effector cells [5]: binding of peptide 15 was observed; graft survival MST [6]: 14.4 ± 1.5 days
Bue-1: 2702 MAP; no sequence printed in the table (SGSGRENLRIALRY; not fully specified; also: MAP construct)	substantially less inhibition	substantially complete inhibition	inhibit the anti-CD3 stimulation in a dose dependent manner	–	–
Bue-3: ENLRIALR	substantially less inhibition	substantially complete inhibition	inhibit the anti-CD3 stimulation in a dose dependent manner	–	–
Bue-4: ENLRIAL	substantially less inhibition	substantially complete inhibition	inhibit the anti-CD3 stimulation in a dose dependent manner	–	–
Bue-5: NLRIAL	significant levels of inhibition	substantially complete inhibition	inhibit the anti-CD3 stimulation in a dose dependent manner	–	–
Woo-2: Bt-SGSG-RENLRIALRY (Biotin-SGSGRENLRIALRY-OH)	substantially less inhibition	substantially complete inhibition	inhibit the anti-CD3 stimulation in a dose dependent manner	–	–
peptide 2: Bi-SGSG-RVNLRIALRY (Biotin-SGSGRVNLRIALRY-OH)	substantially less inhibition	substantially complete inhibition	inhibit the anti-CD3 stimulation in a dose dependent manner	inhibited CTL activity	binding to PBLs [4]: bound to the PBLs; binding on resting lymphocytes [4]: little or no binding on resting lymphocytes
